Assay results: patent publication US20090156577A1, “7-AMINO ALKYLIDENYL-HETEROCYCLIC QUINOLONES AND NAPHTHYRIDONES” (priority 2004, published 2009)
≈ marks a conversion by molar mass, not a printed value. Structures can show the parent of a compound that is named as a salt. Where two headings read alike, the source gives them in different places.

Test system: pathogenic bacteria
Assay: MIC by microdilution broth method (NCCLS M7-A4), in vitro antibacterial activity
Format: cell-based
Outline: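 Broth microdilution per NCCLS M7-A4: two-fold serial dilutions in cation-adjusted Mueller-Hinton broth, inoculum about 5×10^4 CFU/well. Trays incubated 16–20 h at 35 °C. MIC read by comparing growth against no-compound growth controls.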

[1] = Staphylococcus aureus, Organism A: Staphylococcus aureus OC4172, read-out: MIC
[2] = Streptococcus pneumoniae, ATCC49619, Organism E: Streptococcus pneumoniae ATCC 49619, read-out: MIC
[3] = Streptococcus pneumoniae, Organism B: fluoroquinolone-resistant clinical isolate of Streptococcus pneumoniae (QRDR amino acid substitutions)
[4] = Streptococcus pneumoniae, Organism C: fluoroquinolone-resistant clinical isolate of Streptococcus pneumoniae (QRDR amino acid substitutions)
[5] = Streptococcus pneumoniae, Organism D: fluoroquinolone-resistant clinical isolate of Streptococcus pneumoniae (QRDR amino acid substitutions)
[6] = Organism A: Staphylococcus aureus OC4172
[7] = Organism B: fluoroquinolone-resistant clinical isolate of Streptococcus pneumoniae (QRDR amino acid substitutions)
[8] = Organism C: fluoroquinolone-resistant clinical isolate of Streptococcus pneumoniae (QRDR amino acid substitutions)
[9] = Organism D: fluoroquinolone-resistant clinical isolate of Streptococcus pneumoniae (QRDR amino acid substitutions)
[10] = Organism E: Streptococcus pneumoniae ATCC 49619
[11] = Staphylococcus aureus, Organism A: Staphylococcus aureus OC4172
[12] = Streptococcus pneumoniae, ATCC49619, Organism E: Streptococcus pneumoniae ATCC 49619

Row | SMILES | MIC [1] [µg/mL] | MIC [2] [µg/mL] | MIC [3] [µg/mL] | MIC [4] [µg/mL] | MIC [5] [µg/mL] | MIC [6] [µg/mL] | MIC [7] [µg/mL] | MIC [8] [µg/mL] | MIC [9] [µg/mL] | MIC [10] [µg/mL] | MIC [11] [µg/mL] | MIC [12] [µg/mL]
1 | CC(CO)=C1CCN(c2c(F)cc3c(=O)c(C(=O)O)cn4c3c2OCC4C)CC1 (stereo not drawn) [Compound 211, 8-Fluoro-9-[4-(2-hydroxy-1-methyl-ethylidene)-piperidin-1-yl]-3-methyl-6-oxo-2,3-dihydro-6H-1-oxa-3a-aza-phenalene-5-carboxylic acid] | 0.03 (≈ 0.0745 µM) | 0.5 (≈ 1.24 µM) | 4 (≈ 9.94 µM) | 4 (≈ 9.94 µM) |  |  |  |  |  |  |  | 
2 | COc1c(N2CCC(=CCN)CC2)c(F)cc2c(=O)c(C(=O)O)cn(C3CC3)c12 [Compound 212, 7-[4-(2-Amino-ethylidene)-piperidin-1-yl]-1-cyclopropyl-6-fluoro-8-methoxy-4-oxo-1,4-dihydro-quinoline-3-carboxylic acid] | 0.06 (≈ 0.149 µM) | 0.12 (≈ 0.299 µM) | 1 (≈ 2.49 µM) | 2 (≈ 4.98 µM) | 2 (≈ 4.98 µM) |  |  |  |  |  |  | 
3 | CNCC(F)=C1CCN(c2c(F)cc3c(=O)c(C(=O)O)cn(C4CC4)c3c2OC)CC1 [Compound 213, 1-Cyclopropyl-6-fluoro-7-[4-(1-fluoro-2-methylamino-ethylidene)-piperidin-1-yl]-8-methoxy-4-oxo-1,4-dihydro-quinoline-3-carboxylic acid] | 0.12 (≈ 0.277 µM) | 0.5 (≈ 1.15 µM) |  | 2 (≈ 4.61 µM) | 2 (≈ 4.61 µM) |  |  |  |  |  |  | 
4 | CCNCC(F)=C1CCN(c2c(F)cc3c(=O)c(C(=O)O)cn(C4CC4)c3c2OC)CC1 [Compound 214, 1-Cyclopropyl-7-[4-(2-ethylamino-1-fluoro-ethylidene)-piperidin-1-yl]-6-fluoro-8-methoxy-4-oxo-1,4-dihydro-quinoline-3-carboxylic acid] | 0.06 (≈ 0.134 µM) | 0.25 (≈ 0.559 µM) |  | 1 (≈ 2.23 µM) | 1 (≈ 2.23 µM) |  |  |  |  |  |  | 
5 | CNCC(Cl)=C1CCN(c2nc3c(cc2F)c(=O)c(C(=O)O)cn3C2CC2)CC1 [Compound 215, 7-[4-(1-Chloro-2-methylamino-ethylidene)-piperidin-1-yl]-1-cyclopropyl-6-fluoro-4-oxo-1,4-dihydro-[1,8]naphthyridine-3-carboxylic acid] |  | 0.25 (≈ 0.594 µM) |  | 2 (≈ 4.75 µM) | 2 (≈ 4.75 µM) | 0.25 (≈ 0.594 µM) | 2 (≈ 4.75 µM) |  |  |  |  | 
6 | CNCC(Cl)=C1CCN(c2nc3c(cc2F)c(=O)c(C(=O)O)cn3C2CC2)CC1 [Compound 216, 7-[4-(1-Chloro-2-methylamino-ethylidene)-piperidin-1-yl]-1-cyclopropyl-6-fluoro-4-oxo-1,4-dihydro-[1,8]naphthyridine-3-carboxylic acid] |  |  |  |  |  | 0.06 (≈ 0.143 µM) | 0.12 (≈ 0.285 µM) | 2 (≈ 4.75 µM) | 1 (≈ 2.38 µM) | 0.25 (≈ 0.594 µM) |  | 
7 | CNCC(C)=C1CCN(c2nc3c(cc2F)c(=O)c(C(=O)O)cn3C2CC2)CC1 [Compound 217, 1-Cyclopropyl-6-fluoro-7-[4-(1-methyl-2-methylamino-ethylidene)-piperidin-1-yl]-4-oxo-1,4-dihydro-[1,8]naphthyridine-3-carboxylic acid] |  |  |  |  |  | 0.25 (≈ 0.624 µM) |  | 2 (≈ 4.99 µM) | 2 (≈ 4.99 µM) | 0.25 (≈ 0.624 µM) |  | 
8 | CNCC(C)=C1CCN(c2cc3c(cc2F)c(=O)c(C(=O)O)cn3C2CC2)CC1 [Compound 218, 1-Cyclopropyl-6-fluoro-7-[4-(1-methyl-2-methylamino-ethylidene)-piperidin-1-yl]-4-oxo-1,4-dihydro-quinoline-3-carboxylic acid] |  | 0.25 (≈ 0.626 µM) |  |  | 2 (≈ 5.01 µM) | 0.12 (≈ 0.3 µM) |  | 2 (≈ 5.01 µM) |  |  |  | 
9 | CNCC(C)=C1CCN(c2cc3c(cc2F)c(=O)c(C(=O)O)cn3C2CC2)CC1 [Compound 219, 1-Cyclopropyl-6-fluoro-7-[4-(1-methyl-2-methylamino-ethylidene)-piperidin-1-yl]-4-oxo-1,4-dihydro-quinoline-3-carboxylic acid] |  |  | 8 (≈ 20 µM) |  |  | 0.5 (≈ 1.25 µM) |  | 8 (≈ 20 µM) | 4 (≈ 10 µM) | 0.5 (≈ 1.25 µM) |  | 
10 | CNCC(C)=C1CCN(c2c(F)cc3c(=O)c(C(=O)O)cn(C4CC4)c3c2OC(F)F)CC1 [Compound 220, 1-Cyclopropyl-8-difluoromethoxy-6-fluoro-7-[4-(1-methyl-2-methylamino-ethylidene)-piperidin-1-yl]-4-oxo-1,4-dihydro-quinoline-3-carboxylic acid] |  |  | 2 (≈ 4.3 µM) |  |  | 0.12 (≈ 0.258 µM) |  | 4 (≈ 8.59 µM) | 0.5 (≈ 1.07 µM) | 0.5 (≈ 1.07 µM) |  | 
11 | CNCC=C1CCN(c2c(F)cc3c(=O)c(C(=O)O)cn(C4CC4)c3c2OC)CC1 [Compound 221, 1-Cyclopropyl-6-fluoro-8-methoxy-7-[4-(2-methylamino-ethylidene)-piperidin-1-yl]-4-oxo-1,4-dihydro-quinoline-3-carboxylic Acid Trifluoroacetic Acid Salt] |  |  | 2 | 4 | 4 |  |  |  |  |  |  | 
12 | CC(C)NCC(F)=C1CCN(c2nc3c(cc2F)c(=O)c(C(=O)O)cn3C2CC2)CC1 [Compound 247, 1-Cyclopropyl-6-fluoro-7-[4-(1-fluoro-2-isopropylamino-ethylidene)-piperidin-1-yl]-4-oxo-1,4-dihydro-[1,8]naphthyridine-3-carboxylic acid] | 0.5 (≈ 1.16 µM) | 0.5 (≈ 1.16 µM) |  | 8 (≈ 18.5 µM) | 2 (≈ 4.62 µM) |  |  |  |  |  |  | 
13 | CC(C)NCC(Cl)=C1CCN(c2cc3c(cc2F)c(=O)c(C(=O)O)cn3C2CC2)CC1 [Compound 248, 7-[4-(1-Chloro-2-isopropylamino-ethylidene)-piperidin-1-yl]-1-cyclopropyl-6-fluoro-4-oxo-1,4-dihydro-quinoline-3-carboxylic acid] | 0.5 (≈ 1.12 µM) | 2 (≈ 4.46 µM) |  | 16 (≈ 35.7 µM) | 4 (≈ 8.93 µM) |  |  |  |  |  |  | 
14 | CC(C)NCC(F)=C1CCN(c2cc3c(cc2F)c(=O)c(C(=O)O)cn3C2CC2)CC1 [Compound 249, 1-Cyclopropyl-6-fluoro-7-[4-(1-fluoro-2-isopropylamino-ethylidene)-piperidin-1-yl]-4-oxo-1,4-dihydro-quinoline-3-carboxylic acid] | 1 (≈ 2.32 µM) | 2 (≈ 4.64 µM) |  | 16 (≈ 37.1 µM) | 4 (≈ 9.27 µM) |  |  |  |  |  |  | 
15 | CC(C)NCC(Cl)=C1CCN(c2c(F)cc3c(=O)c(C(=O)O)cn(C4CC4)c3c2OC(F)F)CC1 [Compound 250, 7-[4-(1-Chloro-2-isopropylamino-ethylidene)-piperidin-1-yl]-1-cyclopropyl-8-difluoromethoxy-6-fluoro-4-oxo-1,4-dihydro-quinoline-3-carboxylic acid] | 0.25 (≈ 0.486 µM) | 0.5 (≈ 0.973 µM) |  | 8 (≈ 15.6 µM) | 0.5 (≈ 0.973 µM) |  |  |  |  |  |  | 
16 | CC(C)NCC(F)=C1CCN(c2c(F)cc3c(=O)c(C(=O)O)cn(C4CC4)c3c2OC(F)F)CC1 [Compound 251, 1-Cyclopropyl-8-difluoromethoxy-6-fluoro-7-[4-(1-fluoro-2-isopropylamino-ethylidene)-piperidin-1-yl]-4-oxo-1,4-dihydro-quinoline-3-carboxylic acid] | 0.5 (≈ 1.01 µM) | 1 (≈ 2.01 µM) |  | 16 (≈ 32.2 µM) | > 2 |  |  |  |  |  |  | 
17 | COc1c(N2CCC(=C(F)CNC(C)C)CC2)c(F)cc2c(=O)c(C(=O)O)cn(C3CC3)c12 [Compound 252, 1-Cyclopropyl-6-fluoro-7-[4-(i-fluoro-2-isopropylamino-ethylidene)-piperidin-1-yl]-8-methoxy-4-oxo-1,4-dihydro-quinoline-3-carboxylic Acid trifluoroacetic acid salt] | 0.5 | 1 |  | 8 | 4 |  |  |  |  |  |  | 
18 | NC/C(F)=C1/CCCN(c2nc3c(cc2F)c(=O)c(C(=O)O)cn3C2CC2)C1 [Compound 253, (E)-7-[3-(2-Amino-1-fluoro-ethylidene)-piperidin-1-yl]-1-cyclopropyl-6-fluoro-4-oxo-1,4-dihydro-[1,8]naphthyridine-3-carboxylic acid trifluoroacetic acid salt] |  |  | 4 | > 16 | 4 |  |  |  |  |  | 0.06 | 0.5
19 | NC/C(Cl)=C1/CCCN(c2nc3c(cc2F)c(=O)c(C(=O)O)cn3C2CC2)C1 [Compound 254, (E)-7-[3-(2-Amino-1-chloro-ethylidene)-piperidin-1-yl]-1-cyclopropyl-6-fluoro-4-oxo-1,4-dihydro-[1,8]naphthyridine-3-carboxylic acid] | 0.06 (≈ 0.147 µM) | 0.25 (≈ 0.614 µM) |  | 4 (≈ 9.83 µM) | 4 (≈ 9.83 µM) |  |  |  |  |  |  | 
20 | NC/C(Cl)=C1\CCCN(c2nc3c(cc2F)c(=O)c(C(=O)O)cn3C2CC2)C1 [Compound 255, (Z)-7-[3-(2-Amino-1-chloro-ethylidene)-piperidin-1-yl]-1-cyclopropyl-6-fluoro-4-oxo-1,4-dihydro-[1,8]naphthyridine-3-carboxylic acid] | 0.5 (≈ 1.23 µM) | 4 (≈ 9.83 µM) | 2 (≈ 4.92 µM) | 4 (≈ 9.83 µM) | 16 (≈ 39.3 µM) |  |  |  |  |  |  | 
21 | NC/C(F)=C1/CCCN(c2cc3c(cc2F)c(=O)c(C(=O)O)cn3C2CC2)C1 [Compound 256, (E)-7-[3-(2-Amino-1-fluoro-ethylidene)-piperidin-1-yl]-1-cyclopropyl-6-fluoro-4-oxo-1,4-dihydro-quinoline-3-carboxylic Acid Trifluoroacetic Acid Salt] |  |  | 1 | 1 | 1 |  |  |  |  |  | 0.03 | 0.06
22 | NC/C(Cl)=C1/CCCN(c2cc3c(cc2F)c(=O)c(C(=O)O)cn3C2CC2)C1 [Compound 257, (E)-7-[3-(2-Amino-1-chloro-ethylidene)-piperidin-1-yl]-1-cyclopropyl-6-fluoro-4-oxo-1,4-dihydro-quinoline-3-carboxylic acid] | 0.03 (≈ 0.0739 µM) | 0.06 (≈ 0.148 µM) | 0.5 (≈ 1.23 µM) | 0.5 (≈ 1.23 µM) | 0.5 (≈ 1.23 µM) |  |  |  |  |  |  | 
